According to US20210363486A1, “CARDIOMYOCYTE PROLIFERATION PROMOTING AGENT AND USE THEREOF” (KYOTO UNIVERSITY, priority 2018, published 2021):

What was measured:
[1] = tested on: iPS cell-derived cardiomyocytes; experiment: Screening for cardiomyocyte proliferation agent based on cell cycle activation (Fucci green fluorescence and cell number); design: species or system human; details: compounds administered on day 22 after differentiation induction, evaluated on day 25; 384-well plate, 2500 cells per well
From the text: The Fucci gene (Cell. 2008 Feb. 8; 132 (3): 487-98.) was constitutively expressed under the CAG promoter using the PiggyBac transposon vector system (System Biosciences) in a healthy human-derived iPS cell line.
The Fucci gene-introduced iPS cell line was induced to differentiate into cardiomyocytes by the embryoid body method described in Funakoshi, S. et al. Sci Rep 8, 19111 […], cardiomyocytes were extracted using a cell sorter on day 20 after induction, and then seeded into a 384-well plate at 2500 cells per well.
On day 22 after differentiation induction, about 4000 types of compounds were administered, and on day 25, the reactivity of the proliferative capacity of iPS cell-derived cardiomyocytes to the drugs was evaluated based on the intensity of Fucci's green fluorescence and the number of cells.
The Fucci reporter emits orange fluorescence in the G1/G0 phase and green fluorescence in the S/G2/M phase of the cell cycle. Since the cell cycle of undifferentiated human iPS cells is activated, most cells emit green fluorescence. However, when these iPS cells are differentiated into cardiomyocytes, the cell cycle usually stops and most cells turn red.

[2] = tested on: cardiomyocytes on day 18 of differentiation induction; experiment: Flow cytometry of Fucci green fluorescent cardiomyocytes after AM80 administration; format: cell-based, human; details: 1 μM, flow cytometry 48 hours later; vs Control (DMSO); FIG. 1 and FIG. 2
Description: 1 μM AM80 was administered to cardiomyocytes on day 18 of differentiation induction and then analysis was conducted by flow cytometry 48 hours later.

[3] = tested on: myocardial infarction model immunodeficient mouse (NRG mouse); experiment: Engraftment efficiency of transplanted cardiomyocytes by in vivo optical imaging (IVIS); details: cardiomyocytes treated with 1 μM for 48 hours from day 18, intramyocardial injection; compared to DMSO treatment group; FIG. 4
Description: Cardiomyocytes were induced to differentiate from iPS cells (Funakoshi, S. et al. Sci Rep 8, 19111 (2016)) derived from a healthy individual, which constantly express luciferase, by the method described in this document. The cardiomyocytes were treated with AM80 (1 μM) for 48 hours from day 18 after differentiation induction. Cardiomyocytes were extracted by flow cytometry, and then transplanted (1000,000 cells) into a myocardial infarction model immunodeficient mouse (NRG mouse with the left anterior descending coronary artery ligated) by intramyocardial injection.

[4] = tested on: human iPS cell-derived cardiomyocytes; experiment: EdU assay cell proliferation analysis; format: cell-based; details: 1 μM for 48 hours from day 18; compared to control group (DMSO-treated group); FIG. 3
Description: Further, human iPS cell-derived cardiomyocytes on day 18 after differentiation induction were treated with AM80 (1 μM) for 48 hours, and cell proliferation analysis was performed using EdU assay. […] For the EdU assay, Click-it EdU Pacific Blue flow cytometry assay kit, catalog number C10418 (Invitrogen) was used.

Row | SMILES | proliferation and cell division of iPS cell-derived cardiomyocytes (Fucci's green fluorescence intensity and number of cells) [1] | other results
1 | O=C1NC(=O)C(=Cc2ccc(-c3ccc(F)cc3)o2)S1 (stereo in doubt) [CAY10505] | promote the proliferation and cell division | 
2 | CC1=C(/C=C/C(C)=C/C=C/C(C)=C/C(=O)O)C(C)(C)CCC1 [All trans retinoic acid] | promote the proliferation and cell division | 
3 | CC1(C)CCC(C)(C)c2cc(C(=O)Nc3ccc(C(=O)O)cc3)ccc21 [AM580] | promote the proliferation and cell division | 
4 | Cc1ccccc1C(C(=O)NC1CCCCC1)N(C(=O)Cn1ccnc1C)c1cccc(F)c1 (centres unmarked) [AGI5198, N-[2-(cyclohexylamino)-1-(2-methylphenyl)-2-oxoethyl]-N-(3-fluorophenyl)-2-methyl-1H-imidazole-1-acetamide] | promote the proliferation and cell division | 
5 | CC(C)(C)c1cc(C(=O)/C=C/c2ccc(C(=O)O)cc2)cc(C(C)(C)C)c1 [CH55] | promote the proliferation and cell division | 
6 | CC(C)(C)NS(=O)(=O)c1cncc(-c2cc(F)c3nc(N)nn3c2)c1 [CZC24832] | promote the proliferation and cell division | 
7 | O=C(O)c1ccc2cc(-c3ccc(O)c(C45CC6CC(CC(C6)C4)C5)c3)ccc2c1 [CD437] | promote the proliferation and cell division | 
8 | CC1(C)CCC(C)(C)c2cc(NC(=O)c3ccc(C(=O)O)cc3)ccc21 [AM80] | promote the proliferation and cell division | green fluorescent cells (activation of cell cycle) [2]: significant increase; engraftment efficiency of transplanted cardiomyocytes [3]: significant improvement; cell proliferation activity (EdU assay) [4]: significant increase
